# Source: publication PMC9365377 (Clinical Cancer Research, 2022)
# Entries after “also recorded” stand apart in the source; their conditions may differ. Like-named read-outs stand apart in the source and are kept apart here.
# Tests used:
# [1] = phase I study; cited from earlier work
# [2] = system: advanced, previously untreated, unresectable, stage IIIC or IV NRAS-mutant melanoma; conditions: cited from earlier work
# [3] = system: patients with NRAS-mutant melanoma; assay: Phase Ib dose escalation: DLTs in cycle 1, MTD/RP2D determination; type: in vivo, human; conditions: 28-day schedule
# Plasma pharmacokinetics = type: in vivo, human; conditions: for Tmax: steady state; for Cmax: human, Cmax at steady state, geometric mean (geometric %CV)
# [4] = phase I study, 3 weeks on/1 week off; cited from earlier work
# [5] = binimetinib 45 mg orally twice daily or dacarbazine 1,000 mg/m^2 intravenously every 3 weeks, 402 patients
# [6] = patients who received prior immunotherapy
# [7] = binimetinib 45 mg twice daily + ribociclib 200 mg once daily, 28-day schedule, 11 subjects
SMILES,"recommended phase II dose (RP2D), single agent [1] [mg twice daily]","PFS HR, binimetinib vs dacarbazine ([2]; 95% CI, 0.47–0.80, one-sided P < 0.001)","OS HR, binimetinib vs dacarbazine ([2]; 95% CI, 0.75–1.33, one-sided P = 0.50)","median PFS [2, 5] [months]","median PFS [2, 6] [months]",RP2D (in the combination) ([3]; continuous dosing) [mg twice daily],"AUCtau at steady state, geometric mean (geometric %CV) (Plasma pharmacokinetics; binimetinib 45 mg twice daily + ribociclib 200 mg once daily, 28-day schedule, 11 subjects, plasma)",Tmax (Plasma pharmacokinetics; [7]),"recommended dose for expansion, single agent [4] [mg/day]",RP2D (in the combination) ([3]; 21 days on/7 days off) [mg once daily],Dose proportionality of steady-state exposures (Plasma pharmacokinetics; dose-escalation range of 200 to 600 mg once daily),"Cmax (Plasma pharmacokinetics; plasma, 600 mg ribociclib coadministered with binimetinib, 21-day cycle) [ng/mL]","Cmax (Plasma pharmacokinetics; plasma, binimetinib 45 mg twice daily + ribociclib 200 mg once daily, 28-day schedule, 11 subjects, plasma) [ng/mL]"
Cn1cnc2c(F)c(Nc3ccc(Br)cc3F)c(C(=O)NOCCO)cc21 [binimetinib],45,0.62,1.00,2.8,5.5,45,"2,250 (37.7%) hour*ng/mL",about 1.00 hour postdose,–,–,–,–,–
CN(C)/N=N/c1[nH]cnc1C(N)=O [dacarbazine],–,–,–,1.5,1.6,–,–,–,–,–,–,–,–
CN(C)C(=O)c1cc2cnc(Nc3ccc(N4CCNCC4)cn3)nc2n1C1CCCC1 [ribociclib],–,–,–,–,–,–,–,about 2.25 hour postdose,600,200,increased greater than dose proportionally; also recorded: greater than dose proportional,1910,220
